Results: ChEMBL document CHEMBL3871294, “Synthesis of novel substituted pyrimidine derivatives bearing a sulfamide group and their in vitro cancer growth inhibition activity” (Bioorg Med Chem Lett, 2017)

How the values were obtained:
[1] = Antiproliferative activity against estrogen dependent human MCF7 cells after 48 hrs by SRB assay; type: functional; conditions: MCF7, 48 h
[2] = Antiproliferative activity against human HT-29 cells after 48 hrs by SRB assay; type: functional; conditions: HT-29, 48 h
[3] = Antiproliferative activity against human M21 cells after 48 hrs by SRB assay; type: functional; conditions: M21, 48 h
[4] = Antiproliferative activity against neonatal-NHDF cells; type: cell-based; conditions: human
[5] = Antiproliferative activity against human T47D cells; type: functional
[6] = Antiproliferative activity against human MDA-MB-231 cells; type: functional
[7] = Antiproliferative activity against human MDA-MB-468 cells; type: functional
[8] = Antiproliferative activity against human SKBR3 cells; type: functional; conditions: SK-BR-3
[9] = Antiproliferative activity against human HaCaT cells; type: cell-based

## NS(=O)(=O)NCC1CCN(c2cc(-c3ccccc3Cl)ncn2)CC1
[1]
  GI50: 62.4 µM
[2]
  GI50: > 100 µM
[3]
  GI50: > 100 µM
[4]
  GI50: 93 µM
[5]
  GI50: 65.5 µM
[6]
  GI50: > 100 µM
[7]
  GI50: > 100 µM
[8]
  GI50: > 100 µM
[9]
  GI50: > 100 µM

## NS(=O)(=O)NCCC1CCN(c2cc(-c3ccccc3)ncn2)CC1
[1]
  GI50: 53.2 µM
[2]
  GI50: 66.5 µM
[3]
  GI50: > 100 µM

## CCOC(=O)c1ccc(-c2cc(N3CCC(CCNS(N)(=O)=O)CC3)ncn2)cc1
[1]
  GI50: 6.2 µM
[2]
  GI50: 6.8 µM
[3]
  GI50: 9 µM

## CC(C)(C)c1ccc(-c2cc(N3CCC(CNS(N)(=O)=O)CC3)ncn2)cc1
[1]
  GI50: 19.7 µM
[2]
  GI50: 8.9 µM
[3]
  GI50: 19.3 µM

## COc1ccc(-c2cc(N3CCC(CCNS(N)(=O)=O)CC3)ncn2)cc1
[1]
  GI50: 56.6 µM
[2]
  GI50: 72.3 µM
[3]
  GI50: 69.8 µM

## CC(C)(C)c1ccc(-c2cc(N3CCC(CCNS(N)(=O)=O)CC3)ncn2)cc1
[1]
  GI50: 13.1 µM
[2]
  GI50: 10.3 µM
[3]
  GI50: 18.4 µM

## NS(=O)(=O)NCCC1CCN(c2cc(-c3cccc(Cl)c3)ncn2)CC1
[1]
  GI50: 31.2 µM
[2]
  GI50: 31.6 µM
[3]
  GI50: 50.7 µM

## CCCCc1ccc(-c2cc(N3CCC(CNS(N)(=O)=O)CC3)ncn2)cc1
[1]
  GI50: 21.8 µM
[2]
  GI50: 15.2 µM
[3]
  GI50: 47.2 µM

## COc1ccccc1-c1cc(N2CCC(CNS(N)(=O)=O)CC2)ncn1
[1]
  GI50: 10.1 µM
[2]
  GI50: > 100 µM
[3]
  GI50: > 100 µM
[4]
  GI50: > 100 µM
[5]
  GI50: > 100 µM
[6]
  GI50: > 100 µM
[7]
  GI50: > 100 µM
[8]
  GI50: > 100 µM
[9]
  GI50: > 100 µM

## COc1ccccc1-c1cc(N2CCC(CCNS(N)(=O)=O)CC2)ncn1
[1]
  GI50: 69.8 µM
[2]
  GI50: 74.3 µM
[3]
  GI50: 96.9 µM

## NS(=O)(=O)NCCC1CCN(c2cc(-c3ccccc3F)ncn2)CC1
[1]
  GI50: > 100 µM
[2]
  GI50: 51.8 µM
[3]
  GI50: 81.8 µM

## NS(=O)(=O)NCCC1CCN(c2cc(-c3cccc4ccccc34)ncn2)CC1
[1]
  GI50: 5.9 µM
[2]
  GI50: 3.5 µM
[3]
  GI50: 1.8 µM

## NS(=O)(=O)NCC1CCN(c2cc(-c3cccc4ccccc34)ncn2)CC1
[1]
  GI50: 12.1 µM
[2]
  GI50: 6.8 µM
[3]
  GI50: 6.6 µM

## Cc1ccc(-c2cc(N3CCC(CCNS(N)(=O)=O)CC3)ncn2)cc1
[1]
  GI50: 47.5 µM
[2]
  GI50: 52.3 µM
[3]
  GI50: 57.6 µM

## NS(=O)(=O)NCC1CCN(c2cc(-c3cccc(Cl)c3)ncn2)CC1
[1]
  GI50: 47.1 µM
[2]
  GI50: 47.5 µM
[3]
  GI50: 62.5 µM

## CCCCc1ccc(-c2cc(N3CCC(CCNS(N)(=O)=O)CC3)ncn2)cc1
[1]
  GI50: 11.3 µM
[2]
  GI50: 13.3 µM
[3]
  GI50: 15.1 µM

## NS(=O)(=O)NCCC1CCN(c2cc(-c3ccccc3Cl)ncn2)CC1
[1]
  GI50: 44.8 µM
[2]
  GI50: 52.9 µM
[3]
  GI50: 93.9 µM

## NS(=O)(=O)NCC1CCN(c2cc(-c3ccccc3)ncn2)CC1
[1]
  GI50: 34.3 µM
[2]
  GI50: > 100 µM
[3]
  GI50: > 100 µM
[4]
  GI50: > 100 µM
[5]
  GI50: 24.1 µM
[6]
  GI50: > 100 µM
[7]
  GI50: > 100 µM
[8]
  GI50: > 100 µM
[9]
  GI50: > 100 µM

## NS(=O)(=O)NCCC1CCN(c2cc(-c3ccc(C(F)(F)F)cc3)ncn2)CC1
[1]
  GI50: 15.2 µM
[2]
  GI50: 22.6 µM
[3]
  GI50: 34.8 µM

## Cc1ccc(-c2cc(N3CCC(CNS(N)(=O)=O)CC3)ncn2)cc1
[1]
  GI50: 30.6 µM
[2]
  GI50: 33.9 µM
[3]
  GI50: 71 µM

## COC(=O)c1ccc(-c2cc(N3CCC(CNS(N)(=O)=O)CC3)ncn2)cc1
[1]
  GI50: 17.7 µM
[2]
  GI50: 22.9 µM
[3]
  GI50: 14.1 µM

## COC(=O)c1ccc(-c2cc(N3CCC(CCNS(N)(=O)=O)CC3)ncn2)cc1
[1]
  GI50: 17.6 µM
[2]
  GI50: 19.6 µM
[3]
  GI50: 19.6 µM

## NS(=O)(=O)NCCC1CCN(c2cc(-c3ccc(Cl)cc3)ncn2)CC1
[1]
  GI50: 19.7 µM
[2]
  GI50: 30.5 µM
[3]
  GI50: 45.2 µM

## NS(=O)(=O)NCC1CCN(c2cc(-c3ccccc3F)ncn2)CC1
[1]
  GI50: 48.5 µM
[2]
  GI50: 80.4 µM
[3]
  GI50: > 100 µM

## COc1ccc(-c2cc(N3CCC(CNS(N)(=O)=O)CC3)ncn2)cc1
[1]
  GI50: 35.3 µM
[2]
  GI50: > 100 µM
[3]
  GI50: > 100 µM
[4]
  GI50: 77 µM
[5]
  GI50: 24.5 µM
[6]
  GI50: > 100 µM
[7]
  GI50: > 100 µM
[8]
  GI50: > 100 µM
[9]
  GI50: > 100 µM

## CCOC(=O)c1ccc(-c2cc(N3CCC(CNS(N)(=O)=O)CC3)ncn2)cc1
[1]
  GI50: 4.1 µM
[2]
  GI50: 5.7 µM
[3]
  GI50: 5 µM

## NS(=O)(=O)NCC1CCN(c2cc(-c3ccc(Cl)cc3)ncn2)CC1
[1]
  GI50: 25.5 µM
[2]
  GI50: 37.7 µM
[3]
  GI50: 50.3 µM

## NS(=O)(=O)NCC1CCN(c2cc(-c3ccc(C(F)(F)F)cc3)ncn2)CC1
[1]
  GI50: 22.5 µM
[2]
  GI50: 29.1 µM
[3]
  GI50: 43.1 µM
